According to patent US5260386A, “Synthesis of tagged polymers by post-polymerization (trans) amidation reaction” (Nalco Chemical Company, priority 1993, dated 1993):

Columns and labels:
[1] = Survey of relative performance of fluorescent derivatizing agents against a cooling water background; format: physicochemical; settings: for Fluorescent Maximum, emission (em) / Fluorescent Maximum, excitation (ex): 0.4 ppm (acid actives) aqueous solution; for Relative Intensity Value, Composition: 0.4 ppm (acid actives), 1,5-naphthalene disulfonic acid standard = 100%, at own fluorescence maximum; for Relative Performance: composition relative intensity / cooling water background relative intensity
Text: In preferred embodiment the derivatizing agents are selected from those that a reasonably high "relative performance" for a given background. As noted above, a molecule is generally considered highly fluorescent when it has a fluorescent quantum efficiency, or fluorescent quantum yield, within the range of from about 0.1 to about 1.0, and a light absorbance molar extinction coefficient of at least 1,000. The magnitude of fluorescent signal, or relative fluorescence, is the product of the fluorescent quantum yield multiplied times the light absorbance molar extinction coefficient. […] The "relative performance", as this phrase is used herein, is the ratio of the relative fluorescence of a composition to the relative fluorescence of a given background medium. The fluorescence readings are typically measured at the excitation/emission wavelengths that represent major peaks for the given fluorescent tagged polymer. […] Some generalities may be considered. Industrial cooling waters generally have an overall higher fluorescent intensity than industrial boiler waters, and therefore a degree of polymer tagging that is reasonably high for use in boiler waters may not be sufficiently high for cooling waters, since of course the intensity of fluorescence must not be overwhelmed by the background fluorescence and the intensity of fluorescence is dependent on the concentration level of the fluorescent species. Similarly, a polymer that is to be used at high concentration levels in a given background medium need not be tagged to the same extent as one that is to be used at much lower concentration levels, other parameters being the same.
Thus in Example 38 below a survey of relative performance values of a number of fluorescent derivatizing agents against a cooling water background is given as representative of the use of such screening method for any other group of derivatizing agents and any other type of background.
The relative performances of a variety of fluorescent derivatizing agents were surveyed against a cooling water background as follows. An aqueous solution of each agent at a concentration level of 0.4 ppm (acid actives) and the fluorescent intensity of each agent at its fluorescence maximum was determined, in comparison to a fluorescence reference standard. The standard used was 1,5-naphthalene disulfonic acid, which is not a derivatizing agent for the purposes of the present invention because it has no amine functionality. This standard was also measured at its fluorescence maximum in an aqueous solution at a concentration of 0.4 ppm (acid actives) and its intensity was assigned a "relative intensity value" of 100%. The "relative intensity values" of each of the other compositions tested were assigned in relationship to the intensity of the standard. For instance, a composition that had twice the intensity of the standard (the standard and the composition each being measured at their own fluorescence maximums) would be given a relative intensity value of 200%. Then the relative intensity values of the various compositions were compared to that of the cooling water background at the fluorescent maximum (peak excitation/emission wavelengths) of the composition. The cooling water fluorescent intensity employed was the average relative intensity of ten representative cooling water formulations measured for combination of wavelengths of excitation and emission within the range required for this survey. The relative performance for each composition thus is the value determined by dividing the relative intensity value determined for the fluorescence of each composition by the relative intensity value of the background fluorescence of cooling water at the same combination of wavelengths. The identities of the various compositions surveyed and the values determined are set forth below in Table VII.

rats = settings: cited from earlier work

Compound | Fluorescent Maximum, emission (em) [1] [nm] | Fluorescent Maximum, excitation (ex) [1] [nm] | Relative Intensity Value, Composition [1] [%] | Relative Performance [1] | Detectable fluorescence in the survey (in words) ([1]; Table VII survey, 0.4 ppm) | Reported LD50 (oral/rats) (rats) [grams/kilogram]
1-amino-3,6-naphthalene trisulfonic acid | 500 | 360 | 4 | 0 | – | –
O=S(=O)(O)c1cccc2c(S(=O)(=O)O)cccc12 [1,5-naphthalene disulfonic acid] | 330 | 290 | 100 | 14 | – | –
Nc1cc(S(=O)(=O)O)cc2cccc(S(=O)(=O)O)c12 [1-amino-3,8-naphthalene disulfonic acid] | 480 | 245 | 540 | 25 | – | –
Nc1ccc(S(=O)(=O)O)c2cccc(S(=O)(=O)O)c12 [1-amino-4,8-naphthalene disulfonic acid] | 500 | 255 | 122 | 5 | – | –
Nc1ccc(S(=O)(=O)O)c2ccccc12 [1-amino-4-naphthalene sulfonic acid] | 420 | 325 | 444 | 24 | – | –
Nc1ccc2c(S(=O)(=O)O)cccc2c1S(=O)(=O)O [2-amino-1,5-naphthalene disulfonic acid] | 420 | 250 | 486 | 49 | – | –
Nc1cc2ccc(S(=O)(=O)O)cc2cc1S(=O)(=O)O [2-amino-3,6-naphthalene disulfonic acid] | 440 | 250 | 77 | 8 | – | –
Nc1cc(S(=O)(=O)O)c2cccc(S(=O)(=O)O)c2c1 [2-amino-4,8-naphthalene disulfonic acid] | 440 | 245 | – | – | – | –
Nc1ccc2c(S(=O)(=O)O)cc(S(=O)(=O)O)cc2c1 [2-amino-5,7-naphthalene disulfonic acid] | 460 | 250 | 776 | 97 | – | 2.0
Cc1ccc(N)c(S(=O)(=O)O)c1 [2-amino-5-methylbenzene sulfonic acid] | 370 | 240 | 19 | 3 | – | –
Nc1ccc2cc(S(=O)(=O)O)cc(S(=O)(=O)O)c2c1 [2-amino-6,8-naphthalene disulfonic acid] | 445 | 250 | 69 | 7 | – | > 5.0
Nc1ccc2cc(S(=O)(=O)O)ccc2c1 [2-amino-6-naphthalene sulfonic acid] | 420 | 245 | 760 | 78 | – | > 5.0
Nc1ccccc1C(=O)O [2-amino-benzoic acid] | 400 | 240 | 110 | 13 | – | –
Nc1cccc(C(=O)O)c1 [3-amino-benzoic acid] | 370 | 240 | 21 | 3 | – | –
Nc1ccc(S(=O)(=O)O)cc1 [4-amino-benzene sulfonic acid] | 340 | 250 | 26 | 8 | – | –
Nc1ccc(C(=O)O)cc1 [4-amino-benzoic acid] | 340 | 270 | 82 | 13 | – | –
Nc1cc(S(=O)(=O)O)ccc1S(=O)(=O)O [amino-2,5-benzene disulfonic acid] | 380 | 310 | 54 | 4 | – | –
Nc1ccccc1 [aniline] | 340 | 230 | 4 | 1 | – | 0.25

Second part, led by results:

Fluorescent Maximum, emission (em) [1] [nm] | Fluorescent Maximum, excitation (ex) [1] [nm] | Relative Intensity Value, Composition [1] [%] | Relative Performance [1] | Detectable fluorescence in the survey (in words) ([1]; Table VII survey, 0.4 ppm) | Compound | Reported LD50 (oral/rats) (rats) [grams/kilogram]
480 | 240 | 14 | 0 | – | Nc1cccc2c(S(=O)(=O)O)cccc12 [1-amino-5-naphthalene sulfonic acid] | –
485 | 245 | 74 | 3 | – | Nc1cccc2cc(S(=O)(=O)O)ccc12 [1-amino-6-naphthalene sulfonic acid] | –
480 | 340 | 80 | 7 | – | Nc1cccc2ccc(S(=O)(=O)O)cc12 [1-amino-7-naphthalene sulfonic acid] | –
– | – | 0 | 0 | did not provide detectable fluorescence | Nc1cccc2cccc(S(=O)(=O)O)c12 [1-amino-8-naphthalene sulfonic acid] | –
485 | 245 | 150 | 7 | – | Nc1ccc2ccccc2c1S(=O)(=O)O [2-amino-1-naphthalene sulfonic acid] | –
440 | 245 | 750 | 82 | – | Nc1ccc2c(S(=O)(=O)O)cccc2c1 [2-amino-5-naphthalene sulfonic acid] | –
440 | 245 | 446 | 48 | – | Nc1ccc2ccc(S(=O)(=O)O)cc2c1 [2-amino-7-naphthalene sulfonic acid] | –
440 | 240 | 638 | 75 | – | Nc1ccc2cccc(S(=O)(=O)O)c2c1 [2-amino-8-naphthalene sulfonic acid] | –
